# Assay results as given in patent US10945980B2, “Treatment for myopia” (The University of Newcastle, priority 2016, dated 2021).
# Legend:
# Format in all cases: in vivo, guinea pig (Cavia porcellus)
# [1] = tested on: normal eye growth in guinea pigs; test: Eye drops on normal growth and emmetropization (no lens wear); conditions: eye drops twice daily 9-16 days of age
# Procedure: Two experimental protocols were employed (see Table 4). In Experiment 1, young guinea pigs wore a −6D lens on one eye from 5-12 days of age. They were randomly divided within each litter into two groups of 10 animals each, and received either a drop of L-Arginine (100 mM, 1.7%) in Saline (pH 7.4) or Saline alone (0.9%, pH 7.4) twice per day in the eye wearing the lens (Table 4). Drops were administered at the beginning of their light cycle and again approximately 6 hrs later in the middle of their day cycle. Lenses were removed during the drop administration which occurred under dim red light or in darkness. A single large drop was bathed on the cornea for 3 min in the lens-wearing eye in hand held animals. A clean lens was then reintroduced onto the eye. In Experiment 2, 14 guinea pigs were given eye drops in the same manner as in Experiment 1, but in both eyes and without any lens-wear, to determine the effect of the eye drops on normal eye growth. Animals received one drop of either 1.7% L-arginine (n=7) or atropine (Minims Atropine Sulphate 1%, Bausch & Lomb, preservative free, n=7) in one eye and saline (0.9%) in the other eye twice per day from 9-16 days of age.
# In Experiment 1, at the end of the lens-wearing period, at 12 days of age just before the morning lights came on, both eyes were cyclopleged (1% Cyclopentolate—to paralyse the focussing muscles of the eye to a resting state) and 1.25 hours later, refractive error (RE) was measured. Animals were then anaesthetised with gaseous anaesthetic (1.5% isoflurane in oxygen) and eye length measures were taken in both eyes with high frequency ultrasound as described in Example 1. Biometry measures were also taken in the same manner before the lens wear period at 5 days of age. [No refractive measures were done at 5 days of age as cycloplegia could have interfered with the drug or lens response]. In Experiment 2, refractive error and eye length using ultrasound were measured in the same manner at 17 days of age, 24 hours after the previous drop was administered.
# After cycloplegia was induced, refractive error was measured in each eye using an Autorefractor (Nidek AR-20, Japan). The spherical equivalent was calculated as the average of the sphere plus half the cylinder as is normal in clinical practice. All reported refractive errors are the spherical equivalent. Next, ocular length was measured using high frequency ultrasound (20 MHz) as previously described (McFadden et al, 2004). At least 20 traces were recorded for each eye and distances were averaged for at least 10 of these recordings. Peaks from the recordings were selected for the back of the cornea, the crystalline lens, and the vitreous chamber, and the layers at the back of the eye: the retina, choroid, and sclera. Ocular length was defined as the summed measurement from the front of the cornea to the back of the sclera.
# Differences between the two eyes were analysed by a 2-tailed T-tests. The mean of calculated differences between the two eyes is referred to as relative myopia or relative ocular length and the difference in the change in ocular length in the treated compared to the untreated eye as relative growth.
# [2] = tested on: normal growth of guinea pig eyes; test: Intravitreal nωPLA on normal growth (animals without lenses); conditions: 6 mM nωPLA right eye vs vehicle left eye, 3 days from P13, no lenses
# Procedure: (§1) In this second experiment, thirty four guinea pigs were raised and measured as described in Example 1. To induce myopia, animals wore a −6D lens on one eye from P6-P13, which was then removed for 3 days to initiate recovery from myopia, exactly as described in Example 1, Group 3. During the recovery period, animals received daily intravitreal injections (10 μl into the eye which had worn the lens) of either 6 mM nωPLA (PLA, n=9) or vehicle (0.9% isotonic saline, pH 7.4, n=11) on postnatal days P13, P14, and P15. To study the effect of the drugs on normal growth, a further seven animals were raised for the same period without lenses, and from P13 received a vehicle injection into the left eye and a 6 mM nωPLA injection into the right eye for 3 days. The dosage level of 6 mM refers to the concentration of nωPLA in the syringe. (Considerably smaller doses would be experienced at the level of the retina). In all animals, refractive error and axial parameters were measured in both eyes before and after the recovery period, at P13 and P16. In lens-wearing animals, untreated fellow eyes served as matched controls and data is expressed as the relative difference between the lens-wearing eye and the fellow eye.
# [3] = tested on: recovery from myopia in guinea pigs; test: Intravitreal nωPLA during recovery from −6D lens-induced myopia
# Excerpt: That is, if up-regulation of nNOS was causal in the myopic recovery response, injections of nωPLA would be expected to inhibit the ability of the myopic eye recover from myopia.
# as §1
SMILES,"ocular length on average ([1]; measured at 17 days, p=0.22 between groups) [mm]","mean refractive error, both eyes averaged ([1]; measured at 17 days, p=0.32 between groups)","effect on refractive error (drug eye vs saline eye) ([1]; no lens, 1.7% LA (p=0.69) or 1% Atropine (p=0.40))","difference between the two eyes in ocular length (drug eye vs saline control eye) ([1]; LA p=0.39, ATR p=0.42)",elongation in animals without myopia [2],relative myopia in animals without myopia [2],"difference between the eyes in refractive error after the three day recovery period ([3]; 6 mM nωPLA (in syringe) 10 μl intravitreal daily P13-P15, measured P16) [D]","ocular length relative to the saline group after the recovery period ([3]; 6 mM nωPLA intravitreal daily P13-P15, measured P16)"
CN1[C@@H]2CC[C@H]1C[C@@H](OC(=O)C(CO)c1ccccc1)C2 (some centres unmarked) [Atropine],8.192,+5.08,no difference in mean refractive error between the two eyes,+20 μm,–,–,–,–
"CCCN=C(N)NCCC[C@H](N)C(=O)O [nωPLA, N-w-propyl-L-arginine]",–,–,–,–,no influence,no influence,−5.4,had longer eyes
